PubChem BioAssay (NCI)
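Cultured in 96-well plates, cells were exposed to test compound for 48 hours across five concentrations. The concentration for 50% growth inhibition is given as GI50. The concentration for full growth arrest is given as TGI.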

What was measured:
Experiment in all cases: inhibition of tumour cell growth, NCI panel, 48 h
SNB-19 CNS = tested on: SNB-19 CNS
NCI-H522 lung = tested on: NCI-H522 lung
LOX IMVI melanoma = tested on: LOX IMVI melanoma
MOLT-4 leukemia = tested on: MOLT-4 leukemia
RPMI-8226 leukemia = tested on: RPMI-8226 leukemia
EKVX NSCLC = tested on: EKVX NSCLC
MCF7 breast = tested on: MCF7 breast
SF-539 CNS = tested on: SF-539 CNS
NCI-H460 lung = tested on: NCI-H460 lung
COLO 205 colon = tested on: COLO 205 colon
CCRF-CEM leukemia = tested on: CCRF-CEM leukemia
HOP-62 NSCLC = tested on: HOP-62 NSCLC
786-0 renal = tested on: 786-0 renal
DU-145 prostate = tested on: DU-145 prostate
SK-MEL-5 melanoma = tested on: SK-MEL-5 melanoma
OVCAR-4 ovarian = tested on: OVCAR-4 ovarian
SW-620 colon = tested on: SW-620 colon
KM12 colon = tested on: KM12 colon
MDA-MB-231 breast = tested on: MDA-MB-231 breast
TK-10 renal = tested on: TK-10 renal
IGROV1 ovarian = tested on: IGROV1 ovarian
ACHN renal = tested on: ACHN renal
M14 melanoma = tested on: M14 melanoma
SF-268 CNS = tested on: SF-268 CNS
HCC-2998 colon = tested on: HCC-2998 colon
SN12C renal = tested on: SN12C renal
MDA-MB-435 = tested on: MDA-MB-435
HT29 colon = tested on: HT29 colon
SF-295 CNS = tested on: SF-295 CNS
NCI/ADR-RES ovarian = tested on: NCI/ADR-RES ovarian
PC-3 prostate = tested on: PC-3 prostate
OVCAR-8 ovarian = tested on: OVCAR-8 ovarian
HL-60(TB) leukemia = tested on: HL-60(TB) leukemia
CAKI-1 renal = tested on: CAKI-1 renal
SK-MEL-28 melanoma = tested on: SK-MEL-28 melanoma
NCI-H23 lung = tested on: NCI-H23 lung
NCI-H226 lung = tested on: NCI-H226 lung
SNB-75 CNS = tested on: SNB-75 CNS
MALME-3M melanoma = tested on: MALME-3M melanoma
SK-OV-3 ovarian = tested on: SK-OV-3 ovarian
HCT-116 colon = tested on: HCT-116 colon
T-47D breast = tested on: T-47D breast
SR leukemia = tested on: SR leukemia
A549 NSCLC = tested on: A549 NSCLC
SK-MEL-2 melanoma = tested on: SK-MEL-2 melanoma
A498 renal = tested on: A498 renal
OVCAR-5 ovarian = tested on: OVCAR-5 ovarian
HOP-92 NSCLC = tested on: HOP-92 NSCLC
K-562 leukemia = tested on: K-562 leukemia
HS 578T breast = tested on: HS 578T breast
HCT-15 colon = tested on: HCT-15 colon
UO-31 renal = tested on: UO-31 renal
UACC-62 melanoma = tested on: UACC-62 melanoma
U251 CNS = tested on: U251 CNS
BT-549 breast = tested on: BT-549 breast
RXF 393 renal = tested on: RXF 393 renal

Oc1ccc(-c2nnc(SCc3ccc(O)c4ncccc34)n2-c2ccccc2)cc1 showed a GI50 (SNB-19 CNS) of 385 nM, a TGI (SNB-19 CNS) of over 100000 nM and a GI50 (NCI-H522 lung) of 330 nM. For the same compound, the TGI (NCI-H522 lung) was 2850 nM, the GI50 (LOX IMVI melanoma) was 377 nM and the TGI (LOX IMVI melanoma) was 6930 nM. The GI50 (MOLT-4 leukemia) was 394 nM, the TGI (MOLT-4 leukemia) was over 100000 nM and the GI50 (RPMI-8226 leukemia) was 391 nM. The TGI (RPMI-8226 leukemia) was over 100000 nM, the GI50 (EKVX NSCLC) was 596 nM and the TGI (EKVX NSCLC) was over 100000 nM. The GI50 (MCF7 breast) was 140 nM, the TGI (MCF7 breast) was over 100000 nM and the GI50 (SF-539 CNS) was 528 nM. For the same compound, the TGI (SF-539 CNS) was over 44300 nM, the GI50 (NCI-H460 lung) was 152 nM and the TGI (NCI-H460 lung) was 6280 nM. For the same compound, the GI50 (COLO 205 colon) was 3020 nM, the TGI (COLO 205 colon) was over 100000 nM and the GI50 (CCRF-CEM leukemia) was 327 nM. The TGI (CCRF-CEM leukemia) was over 100000 nM, the GI50 (HOP-62 NSCLC) was 521 nM and the TGI (HOP-62 NSCLC) was over 100000 nM. It also gave a GI50 (786-0 renal) of 770 nM, a TGI (786-0 renal) of 11100 nM and a GI50 (DU-145 prostate) of 438 nM. For the same compound, the TGI (DU-145 prostate) was over 100000 nM, the GI50 (SK-MEL-5 melanoma) was 371 nM and the TGI (SK-MEL-5 melanoma) was 1840 nM. The GI50 (OVCAR-4 ovarian) was 566 nM, the TGI (OVCAR-4 ovarian) was over 100000 nM and the GI50 (SW-620 colon) was 397 nM. It also gave a TGI (SW-620 colon) of over 100000 nM, a GI50 (KM12 colon) of 372 nM and a TGI (KM12 colon) of over 100000 nM. It also gave a GI50 (MDA-MB-231 breast) of 458 nM, a TGI (MDA-MB-231 breast) of over 100000 nM and a GI50 (TK-10 renal) of 502 nM. The TGI (TK-10 renal) was over 100000 nM, the GI50 (IGROV1 ovarian) was 471 nM and the TGI (IGROV1 ovarian) was over 88300 nM. For the same compound, the GI50 (ACHN renal) was 365 nM, the TGI (ACHN renal) was over 100000 nM and the GI50 (M14 melanoma) was 284 nM. It also gave a TGI (M14 melanoma) of 1570 nM, a GI50 (SF-268 CNS) of 465 nM and a TGI (SF-268 CNS) of over 100000 nM. The GI50 (HCC-2998 colon) was 620 nM, the TGI (HCC-2998 colon) was over 63400 nM and the GI50 (SN12C renal) was 348 nM. For the same compound, the TGI (SN12C renal) was over 100000 nM, the GI50 (MDA-MB-435) was 380 nM and the TGI (MDA-MB-435) was over 100000 nM. The GI50 (HT29 colon) was 3850 nM, the TGI (HT29 colon) was over 100000 nM and the GI50 (SF-295 CNS) was 387 nM. For the same compound, the TGI (SF-295 CNS) was over 100000 nM, the GI50 (NCI/ADR-RES ovarian) was 207 nM and the GI50 (PC-3 prostate) was 433 nM. It also gave a TGI (PC-3 prostate) of over 100000 nM, a GI50 (OVCAR-8 ovarian) of 233 nM and a TGI (OVCAR-8 ovarian) of over 100000 nM. The GI50 (HL-60(TB) leukemia) was 292 nM, the TGI (HL-60(TB) leukemia) was 2730 nM and the GI50 (CAKI-1 renal) was 448 nM. The TGI (CAKI-1 renal) was over 100000 nM, the GI50 (SK-MEL-28 melanoma) was 621 nM and the TGI (SK-MEL-28 melanoma) was over 100000 nM. For the same compound, the GI50 (NCI-H23 lung) was 482 nM, the TGI (NCI-H23 lung) was over 100000 nM and the GI50 (NCI-H226 lung) was 718 nM. The TGI (NCI-H226 lung) was over 85800 nM, the GI50 (SNB-75 CNS) was 1500 nM and the TGI (SNB-75 CNS) was over 81000 nM. For the same compound, the GI50 (MALME-3M melanoma) was 902 nM, the TGI (MALME-3M melanoma) was over 29100 nM and the GI50 (SK-OV-3 ovarian) was 496 nM. It also gave a TGI (SK-OV-3 ovarian) of over 25900 nM, a GI50 (HCT-116 colon) of 158 nM and a TGI (HCT-116 colon) of over 100000 nM. It also gave a GI50 (T-47D breast) of 600 nM, a TGI (T-47D breast) of over 100000 nM and a GI50 (SR leukemia) of 325 nM. The TGI (SR leukemia) was over 100000 nM, the GI50 (A549 NSCLC) was 614 nM and the TGI (A549 NSCLC) was over 100000 nM. It also gave a GI50 (SK-MEL-2 melanoma) of 828 nM, a TGI (SK-MEL-2 melanoma) of over 36900 nM and a GI50 (A498 renal) of 570 nM. For the same compound, the TGI (A498 renal) was 5840 nM, the GI50 (OVCAR-5 ovarian) was 1320 nM and the TGI (OVCAR-5 ovarian) was over 100000 nM. It also gave a GI50 (HOP-92 NSCLC) of 28.9 nM, a TGI (HOP-92 NSCLC) of 845 nM and a GI50 (K-562 leukemia) of 290 nM. For the same compound, the TGI (K-562 leukemia) was over 100000 nM, the GI50 (HS 578T breast) was 533 nM and the TGI (HS 578T breast) was over 100000 nM. The GI50 (HCT-15 colon) was 164 nM, the TGI (HCT-15 colon) was over 100000 nM and the GI50 (UO-31 renal) was 261 nM. It also gave a TGI (UO-31 renal) of 4260 nM, a GI50 (UACC-62 melanoma) of 462 nM and a TGI (UACC-62 melanoma) of 3980 nM. For the same compound, the GI50 (U251 CNS) was 194 nM, the TGI (U251 CNS) was over 100000 nM and the GI50 (BT-549 breast) was 606 nM. For the same compound, the TGI (BT-549 breast) was over 25800 nM, the GI50 (RXF 393 renal) was 881 nM and the TGI (RXF 393 renal) was over 100000 nM.
